In PMC9151520 (Archives of Toxicology, 2022):
Where “and” joins values, the source holds several entries; their conditions need not be identical. Identical values can stand only once. Counter-ions that a name gives are not always drawn. Like-named read-outs stand apart in the source and are kept apart here.

Columns and labels:
[1] = system: p53 signaling (p53RE-bla HCT-116 cells); assay: cells; format: cell-based; settings: for EC50 / Emax: Homo sapiens
[2] = system: p53 signaling (p53RE-bla HCT-116 cells); assay: cells; settings: Homo sapiens
[3] = system: p53 signaling (p53RE-bla HCT-116 cells)
[4] = system: p53 signaling (p53RE-bla HCT-116 cells); remark: listed apart in the source
[5] = HCT-116, read-out: p53 activation EC50, cherry pick confirmation
[6] = HCT-116, read-out: p53 activation efficacy, cherry pick confirmation
[7] = HCT-116, read-out: p53 activation EC50, primary screening
[8] = HCT-116, read-out: p53 activation efficacy, primary screening
[9] = HCT-116, read-out: EC50, p53 activation, cherry pick confirmation
[10] = HCT-116, read-out: Efficacy, p53 activation, cherry pick confirmation
[11] = HCT-116, read-out: Efficacy, p53 activation, primary screening

Compound	p53 activation EC50, cherry pick confirmation [1]	p53 activation EC50, primary screening [1]	p53 activation efficacy, cherry pick confirmation [1]	p53 activation efficacy, primary screening [1]	Viability EC50, cherry pick confirmation (p53RE-bla HCT-116 cells)	Viability EC50, primary screening (p53RE-bla HCT-116 cells)	Viability efficacy, cherry pick confirmation (p53RE-bla HCT-116 cells)	Viability efficacy, primary screening (p53RE-bla HCT-116 cells)	EC50 [2, 5] [µM]	Emax [2, 6] [%]	p53 activation EC50, cherry pick confirmation [3]	p53 activation efficacy, cherry pick confirmation [3]	also measured
CNC(=O)Oc1cc(C)cc(C(C)C)c1 [Promecarb]	inactive	inactive	inactive	inactive	inactive	inactive	inactive	inactive	20	40.2	inactive	inactive	
CN1CCc2cc3c(cc2C1O)OCO3 (stereo not drawn) [Hydrastinine hydrochloride]	inactive	inactive	inactive	inactive	inactive	inactive	inactive	inactive			inactive	inactive	EC50 [2, 7]: 28.6 µM; Emax [2, 8]: 56.5%; p53 activation EC50, primary screening [3]: inactive; p53 activation efficacy, primary screening [3]: inactive; p53 activation EC50, cherry pick confirmation [4]: inactive; p53 activation efficacy, cherry pick confirmation [4]: inactive
Nc1ccn([C@@H]2O[C@H](CO)[C@@H](O)[C@@H]2O)c(=O)n1 [Cytarabine]													EC50 [1, 9]: 0.913 µM; Emax [1, 10]: 96.4%; Emax [1, 11]: 83.8%; EC50, viability, cherry pick confirmation (p53RE-bla HCT-116 cells): inactive; EC50, viability, primary screening (p53RE-bla HCT-116 cells): inactive; Efficacy, viability, cherry pick confirmation (p53RE-bla HCT-116 cells): inactive; Efficacy, viability, primary screening (p53RE-bla HCT-116 cells): inactive; EC50 [2, 9]: 0.903 µM; Emax [2, 10]: 33.4%; Emax [2, 11]: 31.7%; EC50, p53 activation, cherry pick confirmation [3]: inactive; EC50, p53 activation, primary screening [3]: inactive; Efficacy, p53 activation, cherry pick confirmation [3]: inactive; Efficacy, p53 activation, primary screening [3]: inactive
COP(=O)(OC)O/C(=C\Cl)c1cc(Cl)c(Cl)cc1Cl [Z-Tetrachlorvinphos]	inactive	inactive	inactive	inactive	inactive	inactive	inactive	inactive	31.6	115	inactive	inactive	
CCN(C)C(=O)Oc1cccc([C@H](C)N(C)C)c1 [Rivastigmine tartrate]	inactive	inactive	inactive	inactive	inactive	inactive	inactive	inactive	8.41	32.8	inactive	inactive	
Thimerosal													p53 activation Efficacy, No MS [1]: 73.3573% and 52.656%; EC50 (p53RE-bla HCT-116 cells; read-out: Viability EC50, HLM): 10.6 µM and 8.9 µM; EC50 (p53RE-bla HCT-116 cells; read-out: Viability EC50, No MS): 8.56 µM and 9.16 µM; EC50 (p53RE-bla HCT-116 cells; read-out: Viability EC50, RLM): 8.9 µM; p53 activation EC50, HLM [3]: inactive; EC50 ([3]; read-out: p53 activation EC50, HLM): 5.03 µM; p53 activation EC50, RLM [4]: inactive; p53 activation Efficacy, RLM [4]: inactive
C/C=C(/C(=C/C)c1ccc(O)cc1)c1ccc(O)cc1 [Dienestrol]					inactive	inactive	inactive	inactive			inactive	inactive	EC50 [1, 5]: 7.79 µM; EC50 [1, 7]: 7.81 µM; Emax [1, 6]: 36.1%; Emax [1, 8]: 32.6%; p53 activation EC50, primary screening [3]: inactive; p53 activation efficacy, primary screening [3]: inactive; p53 activation EC50, cherry pick confirmation [4]: inactive; p53 activation EC50, primary screening [4]: inactive; p53 activation efficacy, cherry pick confirmation [4]: inactive; p53 activation efficacy, primary screening [4]: inactive
